Laboratory results as given in PubChem BioAssay AID1963963 (Molecular Pharmacology Branch, DTP, NCI, 2024).

Tested on: 958667-338-R-J2-PDC tumor spheroids viability
Assay: Anticancer human tumor 958667-338-R-J2-PDC patient-derived colon adenocarcinoma cell line growth inhibition [PI3K]
Settings: spheroids with HUVEC and MSC; for IC50: curve of first compound; for viability, T/C: stronger effect = lower value
Method in brief: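 High-throughput combination screen: PI3K inhibitors crossed with targeted small molecules on complex spheroids of tumor cells, HUVEC and MSCs at 37 degrees C, 5% CO2. Top concentration was at or near clinical Cmax (otherwise 10 microM), with half-log decrements.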
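Further: spheroids exposed to compounds for seven days before readout.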

In the case of `Cn1cnc2c(F)c(Nc3ccc(Br)cc3Cl)c(C(=O)NOCCO)cc21` + Cc1nc(NC(=O)N2CCCC2C(N)=O)sc1-c1ccnc(C(C)(C)C(F)(F)F)c1, the IC50 (second compound 0.0316 µM) is reported as 413 nM, the IC50 (second compound 0.1 µM) is reported as 328 nM and the IC50 (second compound 0.316 µM) is reported as 108 nM. It also gave an IC50 (second compound 1 µM) of 58.5 nM, an IC50 (second compound 3.16 µM) of 66 nM and an IC50 (second compound 10 µM) of 14.2 nM. The viability, T/C (second compound 0.0316 µM, first compound 0.00949 µM) was 99.2%, the viability, T/C (second compound 0.0316 µM, first compound 0.03 µM) was 81.9% and the viability, T/C (second compound 0.0316 µM, first compound 0.0949 µM) was 73.6%. For the same compound, the viability, T/C (second compound 0.0316 µM, first compound 0.3 µM) was 56.9%, the viability, T/C (second compound 0.0316 µM, first compound 0.949 µM) was 35.1% and the viability, T/C (second compound 0.0316 µM, first compound 3 µM) was 15.8%. It also gave a viability, T/C (second compound 0.1 µM, first compound 0.00949 µM) of 96.1%, a viability, T/C (second compound 0.1 µM, first compound 0.03 µM) of 95.3% and a viability, T/C (second compound 0.1 µM, first compound 0.0949 µM) of 60.3%. The viability, T/C (second compound 0.1 µM, first compound 0.3 µM) was 52.3%, the viability, T/C (second compound 0.1 µM, first compound 0.949 µM) was 36.4% and the viability, T/C (second compound 0.1 µM, first compound 3 µM) was 12.7%. For the same compound, the viability, T/C (second compound 0.316 µM, first compound 0.00949 µM) was 94.8%, the viability, T/C (second compound 0.316 µM, first compound 0.03 µM) was 69% and the viability, T/C (second compound 0.316 µM, first compound 0.0949 µM) was 52.7%. It also gave a viability, T/C (second compound 0.316 µM, first compound 0.3 µM) of 35.5%, a viability, T/C (second compound 0.316 µM, first compound 0.949 µM) of 21.9% and a viability, T/C (second compound 0.316 µM, first compound 3 µM) of 11.9%. The viability, T/C (second compound 1 µM, first compound 0.00949 µM) was 80%, the viability, T/C (second compound 1 µM, first compound 0.03 µM) was 63% and the viability, T/C (second compound 1 µM, first compound 0.0949 µM) was 40.3%. For the same compound, the viability, T/C (second compound 1 µM, first compound 0.3 µM) was 24%, the viability, T/C (second compound 1 µM, first compound 0.949 µM) was 14.7% and the viability, T/C (second compound 1 µM, first compound 3 µM) was 7.55%. The viability, T/C (second compound 3.16 µM, first compound 0.00949 µM) was 50.3%, the viability, T/C (second compound 3.16 µM, first compound 0.03 µM) was 63.5% and the viability, T/C (second compound 3.16 µM, first compound 0.0949 µM) was 46.2%. For the same compound, the viability, T/C (second compound 3.16 µM, first compound 0.3 µM) was 16.4%, the viability, T/C (second compound 3.16 µM, first compound 0.949 µM) was 11% and the viability, T/C (second compound 3.16 µM, first compound 3 µM) was 3.01%. For the same compound, the viability, T/C (second compound 10 µM, first compound 0.00949 µM) was 56.8%, the viability, T/C (second compound 10 µM, first compound 0.03 µM) was 37.7% and the viability, T/C (second compound 10 µM, first compound 0.0949 µM) was 12.8%. It also gave a viability, T/C (second compound 10 µM, first compound 0.3 µM) of 9.46%, a viability, T/C (second compound 10 µM, first compound 0.949 µM) of 5.65% and a viability, T/C (second compound 10 µM, first compound 3 µM) of 1.13%.
